Here are results for 3 compounds from patent publication US20140363454A1, “Antibody-Drug Conjugates, Compositions and Methods of Use” (Igenica Biotherapeutics, Inc., priority 2013, published 2014).

By IC50 is commonly meant the concentration needed to halve the response being measured. A low value points to greater potency.

For this series, the system named is BT474 (HER2+) cell line. In words: Standard cellular cytotoxicity assay, BT474 (HER2+) cell line. The series is classed as cell-based, human. The text has this: The cytotoxicity of tubulysins T1 and T2 was compared to the cytotoxicity of MMAF using the BT474 (HER2+) cell line in a standard cellular cytotoxicity assay.

Read-outs that look alike come from different tables or passages of the source. Where a SMILES comes first, the peptide text is derived from it. [ ]: non-standard residue; d: D form. Dolaproine = CO[C@@H]([C@@H]1CCCN1)[C@@H](C)C(=O)O; Dil = CC[C@H](C)[C@H](NC)[C@@H](CC(=O)O)OC; NMeV = CN[C@H](C(=O)O)C(C)C

With `CC[C@H](C)[C@H](NC(=O)[C@H]1CCCCN1C)C(=O)N(C)[C@H](C[C@@H](OC(C)=O)c1nc(C(=O)N[C@@H](Cc2ccccc2)C[C@H](C)C(=O)O)cs1)C(C)C` [Entry T2], the IC50 (Homo sapiens, BT-474) was below 0.1 nM.

Compound `CC[C@H](C)[C@@H]([C@@H](CC(=O)N1CCC[C@H]1[C@H](OC)[C@@H](C)C(=O)N[C@@H](Cc1ccccc1)C(=O)O)OC)N(C)C(=O)[C@@H](NC(=O)[C@@H](NC)C(C)C)C(C)C` [MMAF, monomethylauristatin F] (H-[NMeV]V[Dil][Dolaproine]F-OH) yielded an IC50 of 93 nM.

Where the note is “Homo sapiens, BT-474”, `CC[C@H](C)[C@H](NC(=O)[C@H]1CCCCN1C)C(=O)N(C)[C@H](C[C@@H](OC(C)=O)c1nc(C(=O)O)cs1)C(C)C` [Entry T1] registered an IC50 of 11 nM.
